Laboratory results reported in patent US12502391B2, “Multi-kinase inhibitors of VEGF and TGF beta and uses thereof” (AIVIVA BIOPHARMA, INC., priority 2018, dated 2025).
“And” between values parts separate entries of the source, which are not always exact repeats. Equal entries are not always repeated. Structures can show the parent of a compound that is named as a salt.

Key:
[1] = test system: rabbit ear hypertrophic scar; experiment: Histopathology of rabbit ear wounds (neovascularization, fibrosis, re-epithelization); format: in vivo, New Zealand white rabbits; parameters: key to Total Score, Treated Mean: aggregate of neovascularization, fibrosis, re-epithelization grades; key to Neovascularization score, Treated Mean / Fibrosis/Collagen score, Treated Mean / Re-epithelization score, Treated Mean: five-step severity grade: minimal, mild, moderate, marked, severe; details: rabbit ear wound, intradermal dosing of 1 wt. %
Description: In New Zealand white rabbits, maintained under a surgical plane of anesthesia, trauma stimulation of the skin on the ventral surface of both ears is initiated on Day 1. Trauma sites are evaluated on Days 8, 15, 22, 29, 36, and 43. On days 15 and 29, each site is dosed with test compounds (e.g., 1% w/w, 100 μl) by intradermal or intralesional injections.
At necropsy, each treatment site was harvested and preserved for hematoxylin and […] and Mason's trichrome stainings. Each lesion was examined histologically and graded for neovascularization, fibrosis and re-epithelization using a five-step/severity grading system (minimal, mild, moderate, marked, and severe). The average total score is an aggregation of these microscopic findings relating to an inflammatory response.

[2] = test system: full-thickness excision wounds; experiment: Histology of full-thickness excision wounds in Yucatan minipigs (fibroplasia, neovascularization); format: in vivo; details: Yucatan minipig wound sites after two doses, Day 59, scale 1 (minimal) to 5 (severe); for Neovascularization; dermis, average score: untreated 2.33; for Fibroplasia; dermis, average score: untreated 3.33
From the text: (§1) In this experiment, multiple full-thickness excision wounds were made to the dorsum of Yucatan minipigs, and the wound sites were allowed to be re-epithelialized adequately. At four weeks post-wound, the wound sites had normal to pink vascularity and had pliability. Epidermal hyperplasia was observed, as expected for regenerative responses in the full-thickness wounds.
(§2) On Day 28 post-wound, a dose (e.g., 1%) of axitinib, nintedanib, riociguat, sorafenib, sunitinib, and/or lenvatinib was administered into the dermal tissue at or around the wound sites, once every two weeks on two occasions. One wound site was left untreated as the control for each pig. Please note that the particular parameters in this example are only for illustration. One skilled in the art would appreciate that the dosages, administration methods, treatment regimen, and the administration sites may be varied to achieve similar results.
On Day 59 post wound, the minipigs were sacrificed and dermal tissues were collected for qualitative and quantitative evaluation using hematoxylin and eosin, and Mason's Trichrome staining. Dermal fibroplasia was characterized by increased numbers of fibroblasts in the dermis suspended in variable amounts of collagen in wounds.

TGF-β1 mRNA = TGF-β1 mRNA expression (qRT-PCR) in Yucatan pig skin wound sites; format: in vivo, Yucatan minipigs; details: Yucatan pig skin wound sites after treatments; for TGF-β1 mRNA Expression Fold Relative to Untreated Unwounded Control: individual animals 7369, 7370, 7371, duplicate sets 1 and 2, beta actin reference gene
From the text: as §1, §2
In addition, total mRNA was isolated from skin biopsies of the treated wound sites and the untreated unwounded sites of the pigs. The mRNA samples were used to prepare cDNA and analyzed via qRT-PCR. The TGF-β1 expression levels were assessed using beta actin as a reference gene.

[3] = test system: benign prostate hyperplasia; experiment: Testosterone and phenylephrine induced benign prostate hyperplasia in rats; format: in vivo, Wistar rats; parameters: key to epithelial hyperplasia score, dorsolateral prostate, representative image / epithelial hyperplasia score, ventral prostate, representative image: severity grade 0 = not present to 5 = severe
Description: BPH is a true hyperplastic process. Histologic studies have documented an increase in cell number. A study was conducted, therefore, to determine the effects of test compounds and vehicle on testosterone (TE) and phenylephrine (PE) induced benign prostate hyperplasia in rats. Male Wistar rats were induced with testosterone (2 mg/kg) plus phenylephrine (5 mg/kg) administered daily by subcutaneous injection on days 5 through 32. Vehicle or test compounds (all at 1% w/w), nintedanib, sunitinib, lenvatinib, and 0.5% doxazosin mesylate, were administered by intra-prostate injection (0.4 ml) in dorsolateral and ventral lobes on days 1 and 18. Animals were euthanized on day 32. Body weights were determined and prostate glands were harvested. The experimental design is outlined in Table 6.
At necropsy, the ventral and dorsolateral lobes of the prostate were separated and then cut into halves. The left halves were fixed in 10% neutral buffered formalin, sectioned, and stained with Hematoxylin and Eosin (H&E). Histological changes in these sections were scored. Epithelial hyperplasia was recognized as an increase in epithelial cells within normal-appearing gland profiles, primarily reflected by stratification of epithelial cells and increased presence of epithelial tufting and papillary projections. A severity grade of 0 (not present) through 5 (severe) was assigned to each sample.

subconjunctival scarring = experiment: Bleb survival after glaucoma filtration surgery in rabbit eyes; format: in vivo, rabbits
Description: In order to investigate the anti-scarring effect of topically applied test compounds following ocular surgeries, glaucoma filtration surgery was performed on rabbit eyes. Postoperative subconjunctival wound healing is a major cause of late bleb failure after glaucoma filtration surgery in humans. Select multikinase inhibitors were tested for effect on bleb survival over time. Inhibition of subconjunctival fibrosis following surgery will improve bleb survival. Vehicle was used as a negative control and pirfenidone was used a positive control.
A scleral tract was created in the left eyes superiorally by tunneling a beveled 22-gauge intravenous cannula through the sclera, beginning behind the limbus and continuing until the cannula is visible in the anterior chamber. The cannula was flushed with sodium heparin (1000 units) prior to placement. The cannula needle was withdrawn and the cannula advanced beyond the pupillary margin to prevent iris blockage of the tube. The cannula was trimmed approximately 2 mm and secured to the sclera using suture. Both the Tenon's and the conjunctiva were sutured with 9-0 Prolene. Six rabbits were used per group and the left eye of each rabbit underwent glaucoma filtration surgery. The treatment groups include vehicle control, pirfenidone (1%, w/v) as a positive control, sorafenib (0.3%, w/v), and lenvatinib (0.3%, w/v). Eyedrops (35 uL) were topically applied to the eyes following surgery three times day for 30 days. All animals were sacrificed on Day 30.
Bleb was monitored throughout the study. Bleb volumes were measured with the use of calibrated calipers. […] There were differences noted between groups at Day 7, and the majority of blebs were gone by Day 14 through Day 30 indicating bleb failure due to subconjunctival scarring. Results of the vehicle and pirfenidone groups were similar to those reported in the literature (Zhong H et al., Invest Ophthalmol Vis Sci, 52: 3136-3142, 2011).

[4] = test system: suture-induced ocular fibrosis; experiment: Rabbit corneal suture-induced ocular fibrosis model; format: in vivo, rabbits; details: topical three times daily, 10-day observation period
From the text: In order to investigate the anti-fibrotic effect of test compounds following wounding in the eye, a suture-induced ocular fibrosis model was used. Suture was placed intrastromally under a microscope in the cornea of rabbits. In each eye, one 9.0 silk suture was placed, in a vertical position, temporal to the corneal center and a second suture was placed nasal to the corneal center. Each suture had two stromal incursions approximately 2 mm from the limbus. Test compounds having certain spectrum of multikinase inhibition activities and/or vehicle were topically instilled (35 uL/eye) in the eyes three times daily for 10 days the day following surgery. The treatment groups include vehicle, nintedanib (0.3%, w/v), pirfenidone (1%, w/v), riociguat (0.3%, w/v), sorafenib (0.3%, w/v) and lenvatinib (0.3%, w/v). Six left eyes were used per treatment group.
The animals were sacrificed on Day 11 and the eyes enucleated and dissected for histopathological evaluation.

[5] = five-step severity grading (minimal to severe)
[6] = TE and PE induced rats, intra-prostate injection 0.4 ml on days 1 and 18 (1% w/w; doxazosin mesylate 0.5%), severity grade 0 (not present) through 5 (severe), induced vehicle score=4

For `CNC(=O)c1ccccc1Sc1ccc2c(/C=C/c3ccccn3)n[nH]c2c1` [axitinib], the “average total score of test wounds, fold lower than untreated wounds” value [1] was “about 1.3 fold”, the “Total Score, Treated Mean” value ([1]; aggregation of microscopic findings) was 4.6 and the “Fibrosis/Collagen score, Treated Mean” value [1, 5] was 3.3. The “Neovascularization score, Treated Mean” value [1, 5] was 1, the “Re-epithelization score, Treated Mean” value [1, 5] was 0.3 and the “Neovascularization; dermis, average score” value (“Neovascularization; dermis” below) [2] was “(1.67)”. The “Fibroplasia; dermis, average score” value [2] was “(2.33)” and the “TGF-β1 mRNA Expression Fold Relative to Untreated Unwounded Control” value (TGF-β1 mRNA) was 0.89 fold and 0.68 fold (2×) and 0.64 fold and 0.37 fold and 0.78 fold.
`COc1cc2nc(N3CCN(C(=O)C4COc5ccccc5O4)CC3)nc(N)c2cc1OC` (centres unmarked) [doxazosin, doxazosin mesylate] was tested, and the “epithelial hyperplasia score, dorsolateral prostate, representative image” value [3, 6] was 3, the “epithelial hyperplasia score, ventral prostate, representative image” value [3, 6] was 3 and the “glandular hyperplasia compared to untreated TE/PE induced prostates” value ([3]; TE and PE induced rats, intra-prostate injection on days 1 and 18) was “demonstrated reduction of glandular hyperplasia”.
With `Cc1ccc(=O)n(-c2ccccc2)c1` [pirfenidone] the “bleb survival on Day 7” value (subconjunctival scarring; eyedrops 35 uL three times a day, pirfenidone 1% w/v, lenvatinib 0.3% w/v, compared to vehicle and sorafenib groups) was “kept bleb survival on Day 7” and the “bleb remaining / bleb failure on Day 30” value (subconjunctival scarring; eyedrops three times a day for 30 days, 6 animals per group) was “demonstrated bleb failure”.
For `COC(=O)N(C)c1c(N)nc(-c2nn(Cc3ccccc3F)c3ncccc23)nc1N` [riociguat], the “gross ocular observations: conjunctival congestion and swelling” value [4] was “slightly more severe reaction”, the “Neovascularization; dermis” value [2] was “(2.67)” and the “Fibroplasia; dermis, average score” value [2] was “(2.67)”. The “reduction of TGF-β1 mRNA expression levels at treated wounds” value (TGF-β1 mRNA) was “most effective” and the “TGF-β1 mRNA Expression Fold Relative to Untreated Unwounded Control” value (TGF-β1 mRNA) was 0.60 fold and 0.76 fold and 0.87 fold and 0.39 fold and 0.49 fold and 0.8 fold.
With `CCN(CC)CCNC(=O)c1c(C)[nH]c(/C=C2\C(=O)Nc3ccc(F)cc32)c1C` [sunitinib] the “epithelial hyperplasia score, ventral prostate, representative image” value ([3]; 1 % strength) was 3, the “epithelial hyperplasia score, dorsolateral prostate, representative image” value [3, 6] was 3 and the “Neovascularization; dermis” value [2] was “(2.33)”. The “Fibroplasia; dermis, average score” value [2] was “(2.67)” and the “TGF-β1 mRNA Expression Fold Relative to Untreated Unwounded Control” value (TGF-β1 mRNA) was 0.50 fold and 0.53 fold and 0.48 fold and 0.45 fold and 0.64 fold and 1.86 fold.
